Experimental data taken from ChEMBL document CHEMBL6083268, “Discovery of BAY 2413555, First Selective Positive Allosteric Modulator of the M2 Receptor to Restore Cardiac Autonomic Balance” (J Med Chem, 2024).
≈ marks a conversion by molar mass, not a printed value.

Assays:
[1] = target: T1, Muscarinic acetylcholine receptor M2 (Homo sapiens, UniProt P08172); assay: Displacement of [3H]7-[(3R,4R)-3,4-Dihydroxypyrrolidin-1-yl]-6-fluoro-4-oxo-N-[3,3,4,4,4-pentafluorobutan-2-yl]-1-(2,4,6-trifluorophenyl)-1,4-dihydro-1,8-naphthyridine-3-carboxamide from human M2 muscarinic acetylcholine receptor expressed in CHO-S cells in presence of acetylcholine by competitive radioligand binding assay; format: cell-based
T1 sequence (P08172 whole entry): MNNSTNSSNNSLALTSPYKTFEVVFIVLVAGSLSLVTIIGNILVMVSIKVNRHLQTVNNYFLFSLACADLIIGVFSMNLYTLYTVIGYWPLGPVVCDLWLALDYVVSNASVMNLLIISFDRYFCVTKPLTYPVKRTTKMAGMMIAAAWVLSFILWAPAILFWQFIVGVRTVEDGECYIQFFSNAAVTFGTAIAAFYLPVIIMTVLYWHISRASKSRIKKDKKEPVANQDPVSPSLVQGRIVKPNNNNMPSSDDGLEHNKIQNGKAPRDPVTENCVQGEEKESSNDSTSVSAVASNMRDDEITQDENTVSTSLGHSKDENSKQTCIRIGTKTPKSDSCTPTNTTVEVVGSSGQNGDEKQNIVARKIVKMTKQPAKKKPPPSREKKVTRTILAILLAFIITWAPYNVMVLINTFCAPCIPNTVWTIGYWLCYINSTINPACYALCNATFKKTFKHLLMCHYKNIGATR

[2] = target: T1, Muscarinic acetylcholine receptor M2
Description: Positive allosteric modulator activity at human M2 receptor co-expressing mouse GIRK1 and rat GIRK4 subunits in CHO-DUKX cells assessed as changes in acetylcholine-induced membrane potential hyperpolarization by FLIPR analysis

[3] = Intrinsic clearance in rat hepatocytes measured for 90 mins by LC-MS/MS analysis; format: ADME, cell-based, Hepatocyte; conditions: read-out: CLH (converted)
[4] = Solubility of the compound in PBS buffer at pH 6.5 measured after 24 hrs by LC-MS/MS analysis; format: physicochemical
[5] = Apparent permeability of the compound across apical to basolateral sides in human Caco-2 cells at 2 uM measured after 2 hrs by LC-MS/MS analysis; format: ADME, cell-based
[6] = Blood clearance in Wistar rat at 0.3 mg/kg, iv administered as bolus dose by LC-MS analysis; format: ADME, organism-based
[7] = Volume of distribution at steady state in Wistar rat at 0.3 mg/kg, iv administered as bolus dose by LC-MS analysis; format: ADME, organism-based; conditions: in vivo, read-out: Vdss
[8] = Half-life in Wistar rat at 0.3 mg/kg, iv administered as bolus dose by LC-MS analysis; format: ADME, organism-based; conditions: in vivo
[9] = Fraction unbound in rat plasma; format: ADME, cell-free
[10] = Fraction unbound in human plasma; format: ADME, cell-free
[11] = Efflux ratio of apparent permeability across basal to apical membrane over apical to basal membrane in human Caco-2 cells at 2 uM measured after 2 hrs by LC-MS/MS analysis
[12] = Oral bioavailability in Wistar rat at 1 mg/kg by LC-MS analysis; format: ADME, organism-based; conditions: in vivo
[13] = Tmax in Wistar rat at 1 mg/kg, po by LC-MS/MS analysis; format: ADME, organism-based; conditions: in vivo
[14] = Half life in Wistar rat at 1 mg/kg, po by LC-MS/MS analysis; format: ADME, organism-based; conditions: in vivo

COc1nc2sc(C(=O)NC3CC3)c(N)c2c(C)c1Cl
Ki [1]: 3 µM | EC50 [2]: 2.4 µM

O=C(NC12CC3CC(CC(C3)C1)C2)c1cn(-c2ccc(F)cc2F)c2nc(N3CCCC3=O)ccc2c1=O
predicted hepatic blood clearance at […] [3]: 3.6 L/h/kg

CC[C@H](NC(=O)c1cn(-c2c(F)cc(F)cc2F)c2nc(N3C[C@@H](O)[C@H](O)C3)ccc2c1=O)C(F)(F)F
predicted hepatic blood clearance at […] [3]: 1.3 L/h/kg | solubility at 24 h [4]: 13 µg/mL (≈ 24.5 µM) | Papp A→B at 2 h, 2 µM [5]: 12 nm/s | clearance [6]: 1.5 L/h/kg | Vd [7]: 3.5 L/kg | half-life [8]: 1.6 h

CC[C@@H](NC(=O)c1cn(-c2ccccc2Cl)c2nc(N3C[C@@H](O)CC3=O)ccc2c1=O)C(F)(F)F
predicted hepatic blood clearance at […] [3]: 2.6 L/h/kg | solubility at 24 h [4]: 0.3 µg/mL (≈ 0.59 µM)

CN(C)c1ccc2c(=O)c(C(=O)NC34CC5CC(CC(C5)C3)C4)cn(-c3ccc(F)cc3F)c2n1
predicted hepatic blood clearance at […] [3]: 2.5 L/h/kg

CC[C@H](NC(=O)c1cn(-c2c(F)cccc2F)c2nc(N3C[C@@H](O)CC3=O)ccc2c1=O)C(F)(F)F
predicted hepatic blood clearance at […] [3]: 1.5 L/h/kg | solubility at 24 h [4]: 1.5 µg/mL (≈ 2.94 µM)

CC[C@@H](NC(=O)c1cn(-c2ccccc2F)c2nc(N3C[C@@H](O)CC3=O)ccc2c1=O)C(F)(F)F
predicted hepatic blood clearance at […] [3]: 1.9 L/h/kg | solubility at 24 h [4]: 1.1 µg/mL (≈ 2.23 µM)

CC[C@@H](NC(=O)c1cn(-c2c(Cl)cccc2Cl)c2nc(N3C[C@@H](O)CC3=O)ccc2c1=O)C(F)(F)F
predicted hepatic blood clearance at […] [3]: 2.6 L/h/kg

O=C(N[C@@H](C1CC1)C(F)(F)F)c1cn(-c2c(F)cc(F)cc2F)c2nc(N3C[C@@H](O)[C@H](O)C3)ccc2c1=O
predicted hepatic blood clearance at […] [3]: 1.1 L/h/kg | solubility at 24 h [4]: 12.5 µg/mL (≈ 23 µM) | fraction unbound [9]: 0.025 | fraction unbound [10]: 0.033 | Papp A→B at 2 h, 2 µM [5]: 129 nm/s | efflux ratio at 2 h, 2 µM [11]: 8 | clearance [6]: 0.9 L/h/kg | Vd [7]: 3.7 L/kg | half-life [8]: 4.6 h | bioavailability [12]: 19%

O=C(NC12CC3CC(CC(C3)C1)C2)c1cn(-c2ccc(F)cc2F)c2nc(N3CCCC3)ccc2c1=O
predicted hepatic blood clearance at […] [3]: 3 L/h/kg

CC[C@@H](NC(=O)c1cn(-c2c(F)cccc2F)c2nc(N3C[C@@H](O)CC3=O)ccc2c1=O)C(F)(F)F
predicted hepatic blood clearance at […] [3]: 1.3 L/h/kg | solubility at 24 h [4]: 2.9 µg/mL (≈ 5.68 µM) | fraction unbound [9]: 0.009 | fraction unbound [10]: 0.023 | Papp A→B at 2 h, 2 µM [5]: 482 nm/s | efflux ratio at 2 h, 2 µM [11]: 0.8 | clearance [6]: 1.3 L/h/kg | Vd [7]: 1.7 L/kg | half-life [8]: 1.2 h | bioavailability [12]: 29%

CC[C@H](NC(=O)c1cn(-c2c(F)cc(F)cc2F)c2nc(N3C[C@@H](O)CC3=O)ccc2c1=O)C(F)(F)F
predicted hepatic blood clearance at […] [3]: 1 L/h/kg | solubility at 24 h [4]: 0.4 µg/mL (≈ 0.757 µM) | fraction unbound [9]: 0.02 | fraction unbound [10]: 0.03 | Papp A→B at 2 h, 2 µM [5]: 462 nm/s | efflux ratio at 2 h, 2 µM [11]: 0.6 | clearance [6]: 1.2 L/h/kg | Vd [7]: 3.5 L/kg | half-life [8]: 3.4 h | bioavailability [12]: 91%

CC[C@@H](NC(=O)c1cn(-c2ccc(F)cc2F)c2nc(N3C[C@@H](O)CC3=O)ccc2c1=O)C(F)(F)F
predicted hepatic blood clearance at […] [3]: 1.36 L/h/kg | solubility at 24 h [4]: 1.9 µg/mL (≈ 3.72 µM) | fraction unbound [9]: 0.008 | Papp A→B at 2 h, 2 µM [5]: 456 nm/s | efflux ratio at 2 h, 2 µM [11]: 0.9 | clearance [6]: 1.6 L/h/kg | Vd [7]: 0.8 L/kg | half-life [8]: 0.8 h | bioavailability [12]: 29%

CC[C@@H](NC(=O)c1cn(-c2c(F)cc(F)cc2F)c2nc(N3C[C@@H](O)CC3=O)ccc2c1=O)C(F)(F)F
predicted hepatic blood clearance at […] [3]: 1.9 L/h/kg | solubility at 24 h [4]: 2.2 µg/mL (≈ 4.16 µM) | Papp A→B at 2 h, 2 µM [5]: 434 nm/s | efflux ratio at 2 h, 2 µM [11]: 0.6 | clearance [6]: 3.4 L/h/kg | Vd [7]: 2.3 L/kg | half-life [8]: 0.9 h

CC[C@@H](NC(=O)c1cn(-c2c(Cl)cc(F)cc2Cl)c2nc(N3C[C@@H](O)CC3=O)ccc2c1=O)C(F)(F)F
predicted hepatic blood clearance at […] [3]: 1.9 L/h/kg | solubility at 24 h [4]: < 0.1 µg/mL

CC(C)(C)[C@H](NC(=O)c1cn(-c2c(F)cc(F)cc2F)c2nc(N3C[C@@H](O)[C@H](O)C3)ccc2c1=O)C(F)(F)F
predicted hepatic blood clearance at […] [3]: 2.5 L/h/kg | solubility at 24 h [4]: 1.4 µg/mL (≈ 2.51 µM)

O=C(NC1(C(F)(F)F)CCCC1)c1cn(-c2c(F)cc(F)cc2F)c2nc(N3C[C@@H](O)[C@H](O)C3)ccc2c1=O
predicted hepatic blood clearance at […] [3]: 3.6 L/h/kg

O=C(NC1(C(F)(F)F)CCC1)c1cn(-c2c(F)cc(F)cc2F)c2nc(N3C[C@@H](O)[C@H](O)C3)ccc2c1=O
predicted hepatic blood clearance at […] [3]: 3.5 L/h/kg | solubility at 24 h [4]: 0.9 µg/mL (≈ 1.66 µM)

O=C(Nc1c(Cl)cccc1Cl)c1cn(-c2ccc(F)cc2F)c2nc(N3C[C@@H](O)CC3=O)ccc2c1=O
predicted hepatic blood clearance at […] [3]: 1.6 L/h/kg

CC[C@H](NC(=O)c1cn(-c2ncc(F)cc2F)c2nc(N3C[C@@H](O)CC3=O)ccc2c1=O)C(F)(F)F
predicted hepatic blood clearance at […] [3]: 0.4 L/h/kg | solubility at 24 h [4]: 1.8 µg/mL (≈ 3.52 µM)

CC[C@H](NC(=O)c1cn(-c2c(F)cc(F)cc2F)c2nc(N3CC4CC4(O)C3)ccc2c1=O)C(F)(F)F (mixture of isomers)
predicted hepatic blood clearance at […] [3]: 3.4 L/h/kg | solubility at 24 h [4]: < 0.1 µg/mL

CCC(NC(=O)c1cn(-c2c(F)cc(F)cc2F)c2nc(N3C[C@@H](O)[C@H](O)C3)ccc2c1=O)C(F)(F)C(F)(F)F (single isomer, unassigned; diastereomer 1)
predicted hepatic blood clearance at […] [3]: 2 L/h/kg | solubility at 24 h [4]: 62 µg/mL (≈ 107 µM) | fraction unbound [9]: 0.013 | fraction unbound [10]: 0.018 | Papp A→B at 2 h, 2 µM [5]: 83 nm/s | clearance [6]: 0.5 L/h/kg | Vd [7]: 1.2 L/kg | half-life [8]: 2.1 h | bioavailability [12]: 22%

CC(NC(=O)c1cn(-c2c(F)cc(F)cc2F)c2nc(N3C[C@@H](O)[C@H](O)C3)ccc2c1=O)C(F)(F)C(F)(F)F (single isomer, unassigned; diastereomer 1)
predicted hepatic blood clearance at […] [3]: 0.8 L/h/kg | solubility at 24 h [4]: 54.7 µg/mL (≈ 96.6 µM) | Papp A→B at 2 h, 2 µM [5]: 193 nm/s | clearance [6]: 0.7 L/h/kg | Vd [7]: 2.5 L/kg | half-life [8]: 2.1 h | bioavailability [12]: 21%

CCC(NC(=O)c1cn(-c2c(F)cc(F)cc2F)c2nc(N3C[C@@H](O)[C@H](O)C3)c(F)cc2c1=O)C(F)(F)C(F)(F)F (single isomer, unassigned; diastereomer 1)
predicted hepatic blood clearance at […] [3]: 1.2 L/h/kg | solubility at 24 h [4]: 11.2 µg/mL (≈ 18.7 µM) | fraction unbound [9]: 0.006 | Papp A→B at 2 h, 2 µM [5]: 113 nm/s | clearance [6]: 1.4 L/h/kg | Vd [7]: 3 L/kg | half-life [8]: 1.8 h | bioavailability [12]: 48% | Tmax [13]: 6 h | half-life [14]: 4.2 h

CC(C)(C)C(NC(=O)c1cn(-c2c(F)cc(F)cc2F)c2nc(N3C[C@@H](O)[C@H](O)C3)c(F)cc2c1=O)C(F)(F)C(F)(F)F (single isomer, unassigned; diastereomer 2)
predicted hepatic blood clearance at […] [3]: 3.1 L/h/kg | solubility at 24 h [4]: 0.4 µg/mL (≈ 0.638 µM) | Papp A→B at 2 h, 2 µM [5]: 60 nm/s
